# Test results reported in patent publication US8741897B2, “Glucocorticoid mimetics, methods of making them, pharmaceutical compositions and uses thereof” (Boehringer Ingelheim Pharmaceuticals Inc., priority 2003, dated 2014).
# Tested on: glucocorticoid receptor function
# Assay: one or more of the above assays (GR binding and glucocorticoid receptor cell assays: aromatase, IL-6, TAT, MMTV-Luc, IL-8, ICAM-Luc)
# Assay type: cell-based
# Conditions: assay not specified per compound
row,Structure (SMILES),activity as agonists of the glucocorticoid receptor function in one or more of the above assays
1,"COc1ccc(F)cc1C(C)(C)CC(O)(Cc1cc2cnccc2[nH]1)C1CC1 (stereo not shown) [2-Cyclopropyl-4-(5-fluoro-2-methoxyphenyl)-4-methyl-1-(1H-pyrrolo[3,2-c]pyridin-2-yl)pentan-2-ol]",agonists
2,"CC(C)(CC(O)(Cn1ccc2c1CCCC2=O)C(F)(F)F)c1cc(-c2cncnc2)cc2c1OCC2 (stereo not shown) [1-[2-Hydroxy-4-methyl-4-(5-pyrimidin-5-yl-2,3-dihydrobenzofuran-7-yl)-2-trifluoromethylpentyl]-1,5,6,7-tetrahydroindol-4-one]",agonists
3,"Cc1c(CC(O)(CC(C)(C)c2cc(-c3cccnc3)ccc2O)C(F)(F)F)[nH]c2cnccc12 (stereo not shown) [4-Pyridin-3-yl-2-[4,4,4-trifluoro-3-hydroxy-1,1-dimethyl-3-(3-methyl-1H-pyrrolo[2,3-c]pyridin-2-ylmethyl)butyl]phenol]",potent agonists
4,"COc1ccc(Br)cc1C(C)(C)CC(O)(Cc1cc2ccncc2[nH]1)C(F)(F)F (stereo not shown) [4-(5-Bromo-2-methoxyphenyl)-1,1,1-trifluoro-4-methyl-2-(1H-pyrrolo[2,3-c]pyridin-2-ylmethyl)pentan-2-ol]",potent agonists
5,"CC(C)(CC(O)(Cc1cc2ccncc2[nH]1)C(F)(F)F)c1cc(-c2ccccc2)ccc1O (stereo not shown) [3-[4,4,4-Trifluoro-3-hydroxy-1,1-dimethyl-3-(1H-pyrrolo[2,3-c]pyridin-2-ylmethyl)butyl]biphenyl-4-ol]",potent agonists
6,"CC(C)(CC(O)(Cc1cc2nc(C(N)=O)ccc2[nH]1)C(F)(F)F)c1cc(Cl)cc2c1OCC2 (stereo not shown) [2-[4-(5-Chloro-2,3-dihydrobenzofuran-7-yl)-2-hydroxy-4-methyl-2-trifluoromethylpentyl]-1H-pyrrolo[3,2-b]pyridine-5-carboxylic acid amide]",potent agonists
7,"COc1ccc(-c2cccnc2)cc1C(C)(C)CC(O)(Cc1cc2ccncc2[nH]1)C(F)(F)F (stereo not shown) [1,1,1-Trifluoro-4-(2-methoxy-5-pyridin-3-ylphenyl)-4-methyl-2-(1H-pyrrolo[2,3-c]pyridin-2-ylmethyl)pentan-2-ol]",potent agonists
8,"CN(C)c1ccc(-c2ccc3[nH]c(CC(O)(CC(C)(C)c4cc(F)cc5c4OCC5)C(F)(F)F)cc3c2)cc1 (stereo not shown) [2-[5-(4-Dimethylaminophenyl)-1H-indol-2-ylmethyl]-1,1,1-trifluoro-4-(5-fluoro-2,3-dihydrobenzofuran-7-yl)-4-methylpentan-2-ol]",potent agonists
9,"CC(C)(CC(O)(Cc1cc2cc(N3CCOCC3)ncc2[nH]1)C(F)(F)F)c1cc(-c2ccccc2C#N)ccc1O (stereo not shown) [4′-Hydroxy-3′-[4,4,4-trifluoro-3-hydroxy-1,1-dimethyl-3-(5-morpholin-4-yl-1H-pyrrolo[2,3-c]pyridin-2-ylmethyl)butyl]biphenyl-2-carbonitrile]",potent agonists
10,CN(C)Cc1c(CC(O)(CC(C)(C)c2cc(F)ccc2O)C(F)(F)F)[nH]c2ccncc12 (stereo not shown),potent agonists
11,"C[S+]([O-])c1ccc2[nH]c(CC(O)(CC(C)(C)c3cc(F)cc4c3OCC4)C(F)(F)F)cc2c1 (stereo not shown) [1,1,1-Trifluoro-4-(5-fluoro-2,3-dihydrobenzofuran-7-yl)-2-(5-methanesulfinyl-1H-indol-2-ylmethyl)-4-methylpentan-2-ol]",potent agonists
12,"CC(C)(CC(O)(Cc1cc2nnccc2[nH]1)C(F)(F)F)c1cc(F)ccc1O (stereo not shown) [4-Fluoro-2-[4,4,4-trifluoro-3-hydroxy-1,1-dimethyl-3-(5H-pyrrolo[3,2-c]pyridazin-6-ylmethyl)butyl]phenol]",potent agonists
13,CC(C)(CC(O)(Cc1cc2c(C#N)cccc2[nH]1)C(F)(F)F)c1cc(F)ccc1O (stereo not shown) [2-[4-(5-Fluoro-2-hydroxyphenyl)-2-hydroxy-4-methyl-2-trifluoromethylpentyl]-1H-indole-4-carbonitrile],potent agonists
14,"CC(CO)(CC(O)(Cc1ccnc2ccccc12)C(F)(F)F)c1ccccc1 (stereo not shown) [5,5,5-Trifluoro-2-methyl-2-phenyl-4-quinolin-4-ylmethylpentane-1,4-diol]",agonists
15,"CC(C)(CC(O)(Cc1cc2cc(Cl)ncc2[nH]1)C(F)(F)F)c1cc(F)ccc1O (stereo not shown) [2-[3-(5-Chloro-1H-pyrrolo[2,3-c]pyridin-2-ylmethyl)-4,4,4-trifluoro-3-hydroxy-1,1-dimethylbutyl]-4-fluorophenol]",potent agonists
16,"COc1ccc(-c2cncnc2)cc1C(C)(C)CC(O)(Cc1cc2cc(Cl)ncc2[nH]1)C(F)(F)F (stereo not shown) [2-(5-Chloro-1H-pyrrolo[2,3-c]pyridin-2-ylmethyl)-1,1,1-trifluoro-4-(2-methoxy-5-pyrimidin-5-ylphenyl)-4-methylpentan-2-ol]",potent agonists

row,Structure (SMILES),activity as agonists of the glucocorticoid receptor function in one or more of the above assays
1,"Cc1nccc2[nH]c(CC(O)(CC(C)(C)c3cc(-c4cccnc4)ccc3O)C(F)(F)F)cc12 (stereo not shown) [4-Pyridin-3-yl-2-[4,4,4-trifluoro-3-hydroxy-1,1-dimethyl-3-(4-methyl-1H-pyrrolo[3,2-c]pyridin-2-ylmethyl)butyl]phenol]",potent agonists
2,"COc1ccc(-c2ccccc2)cc1C(C)(C)CC(O)(Cc1cc2c(C)nccc2[nH]1)C(F)(F)F (stereo not shown) [1,1,1-Trifluoro-4-(4-methoxybiphenyl-3-yl)-4-methyl-2-(4-methyl-1H-pyrrolo[3,2-c]pyridin-2-ylmethyl)pentan-2-ol]",potent agonists
3,"CC(C)(CC(O)(Cc1cc2ccncc2[nH]1)C(F)(F)F)c1cc(Br)ccc1O (stereo not shown) [4-Bromo-2-[4,4,4-trifluoro-3-hydroxy-1,1-dimethyl-3-(1H-pyrrolo[2,3-c]pyridin-2-ylmethyl)butyl]phenol]",potent agonists
4,"COc1ccc(-c2cncnc2)cc1C(C)(C)CC(O)(Cc1cc2cc(O)ncc2[nH]1)C(F)(F)F (stereo not shown) [2-[2-Hydroxy-4-(2-methoxy-5-pyrimidin-5-ylphenyl)-4-methyl-2-trifluoromethylpentyl]-1H-pyrrolo[2,3-c]pyridin-5-ol]",potent agonists
5,"CC(C)(CC(O)(Cc1cc2cnccc2[nH]1)C(F)(F)F)c1cccc(CN2CCOCC2)c1 (stereo not shown) [1,1,1-Trifluoro-4-methyl-4-(3-morpholin-4-ylmethylphenyl)-2-(1H-pyrrolo[3,2-c]pyridin-2-ylmethyl)pentan-2-ol]",potent agonists
6,"CC(C)Oc1cc2cc(CC(O)(CC(C)(C)c3cc(-c4ccccc4)cc4c3OCC4)C(F)(F)F)[nH]c2cn1 (stereo not shown) [1,1,1-Trifluoro-2-(5-isopropoxy-1H-pyrrolo[2,3-c]pyridin-2-ylmethyl)-4-methyl-4-(5-phenyl-2,3-dihydrobenzofuran-7-yl)pentan-2-ol]",potent agonists
7,"CC(C)(CC(O)(Cc1cc2cnccc2[nH]1)C(F)F)c1cc(F)ccc1O (stereo not shown) [2-[4,4-Difluoro-3-hydroxy-1,1-dimethyl-3-(1H-pyrrolo[3,2-c]pyridin-2-ylmethyl)butyl]-4-fluorophenol]",agonists
8,"CC(C)(CC(O)(Cn1ccc2ncccc21)C(F)F)c1cc(Cl)cc2c1OCC2 (stereo not shown) [4-(5-Chloro-2,3-dihydrobenzofuran-7-yl)-1,1-difluoro-4-methyl-2-pyrrolo[3,2-b]pyridin-1-ylmethylpentan-2-ol]",agonists
9,"Cc1ccc(F)cc1C(C)(C)CC(O)(Cc1cc2ccncc2[nH]1)C(C)(C)C (stereo not shown) [5-(5-Fluoro-2-methylphenyl)-2,2,5-trimethyl-3-(1H-pyrrolo[2,3-c]pyridin-2-ylmethyl)hexan-3-ol]",agonists
10,"COc1cc(F)ccc1C(C)(C)CC(O)(Cc1cc2cc(N(C)C)ncc2[nH]1)C(F)(F)F (stereo not shown) [2-(5-Dimethylamino-1H-pyrrolo[2,3-c]pyridin-2-ylmethyl)-1,1,1-trifluoro-4-(4-fluoro-2-methoxyphenyl)-4-methylpentan-2-ol]",potent agonists
11,"Cc1ccc(F)cc1C(C)(C)CC(O)(Cc1cc2cc(-c3ccccc3)ncc2[nH]1)C(C)C (stereo not shown) [5-(5-Fluoro-2-methylphenyl)-2,5-dimethyl-3-(5-phenyl-1H-pyrrolo[2,3-c]pyridin-2-ylmethyl)hexan-3-ol]",agonists
12,"COc1ccc(F)cc1C(C)(C)CC(O)(Cc1cc2ccncc2[nH]1)C(F)F (stereo not shown) [1,1-Difluoro-4-(5-fluoro-2-methoxyphenyl)-4-methyl-2-(1H-pyrrolo[2,3-c]pyridin-2-ylmethyl)pentan-2-ol]",agonists
13,"CC(C)(CC(O)(Cc1cc2nc(CO)ccc2[nH]1)C(F)(F)F)c1cc(Cl)cc2c1OCC2 (stereo not shown) [4-(5-Chloro-2,3-dihydrobenzofuran-7-yl)-1,1,1-trifluoro-2-(5-hydroxymethyl-1H-pyrrolo[3,2-b]pyridin-2-ylmethyl)-4-methylpentan-2-ol]",potent agonists
14,"Cc1ccc(F)c2[nH]c(CC(O)(CC(C)(C)c3cc(S(C)(=O)=O)cc4c3OCC4)C(F)(F)F)cc12 (stereo not shown) [1,1,1-Trifluoro-2-(7-fluoro-4-methyl-1H-indol-2-ylmethyl)-4-(5-methanesulfonyl-2,3-dihydrobenzofuran-7-yl)-4-methylpentan-2-ol]",potent agonists
15,"COc1ccc(-c2ccccc2)cc1C(C)(C)CC(O)(Cc1cc2cc(OC(C)C)ncc2[nH]1)C(F)(F)F (stereo not shown) [1,1,1-Trifluoro-2-(5-isopropoxy-1H-pyrrolo[2,3-c]pyridin-2-ylmethyl)-4-(4-methoxybiphenyl-3-yl)-4-methylpentan-2-ol]",potent agonists
